In PubChem BioAssay AID248 (DTP/NCI, 2004):
“And” between values parts separate entries of the source, which are not always exact repeats. Identical values can stand only once. Toxic doses and inconclusive results are not listed. Rule as the data show it: active = T/C of 150% or more; inactive = T/C below 125%.

Test system: L1210 leukemia ip in BDF1 mice, survival T/C
Test: NCI In Vivo Anticancer Drug Screen. Data for tumor model L1210 Leukemia (intraperitoneal) in B6D2F1 (BDF1) mice
Details: endpoint: mean survival time, higher = longer survival
How it was run: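 Each compound was tested against a transplantable tumor grown in mice. The endpoint was survival, with treated animals benchmarked against vehicle controls as a simple ratio.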

[1] = dose: 100.0 mg/kg/injection, schedule: Q04DX003 (ip), vehicle: Klucel (hydroxypropylcellulose) (HPC)
[2] = dose: 50.0 mg/kg/injection, schedule: Q01DX001 (ip), vehicle: carboxymethylcellulose (CMC)
[3] = dose: 100.0 mg/kg/injection, schedule: Q01DX001 (ip), vehicle: carboxymethylcellulose (CMC)
[4] = dose: 200.0 mg/kg/injection, schedule: Q01DX001 (ip), vehicle: carboxymethylcellulose (CMC)
[5] = dose: 400.0 mg/kg/injection, schedule: Q01DX001 (ip), vehicle: carboxymethylcellulose (CMC)
[6] = dose: 100.0 mg/kg/injection, schedule: Q04DX002 (ip), vehicle: saline
[7] = dose: 200.0 mg/kg/injection, schedule: Q04DX002 (ip), vehicle: saline
[8] = dose: 400.0 mg/kg/injection, schedule: Q04DX002 (ip), vehicle: saline
[9] = dose: 100.0 mg/kg/injection, schedule: Q01DX001 (ip), vehicle: saline
[10] = dose: 200.0 mg/kg/injection, schedule: Q01DX001 (ip), vehicle: saline
[11] = dose: 400.0 mg/kg/injection, schedule: Q01DX001 (ip), vehicle: saline
[12] = dose: 50.0 mg/kg/injection, schedule: Q01DX001 (ip), vehicle: saline
[13] = dose: 100.0 mg/kg/injection, schedule: Q04DX002 (ip), vehicle: Klucel (hydroxypropylcellulose) (HPC)
[14] = dose: 200.0 mg/kg/injection, schedule: Q04DX002 (ip), vehicle: Klucel (hydroxypropylcellulose) (HPC)
[15] = dose: 400.0 mg/kg/injection, schedule: Q04DX002 (ip), vehicle: Klucel (hydroxypropylcellulose) (HPC)
[16] = dose: 100.0 mg/kg/injection, schedule: Q04DX002 (ip), vehicle: saline with Tween-80
[17] = dose: 200.0 mg/kg/injection, schedule: Q04DX002 (ip), vehicle: saline with Tween-80
[18] = dose: 400.0 mg/kg/injection, schedule: Q04DX002 (ip), vehicle: saline with Tween-80
[19] = dose: 100.0 mg/kg/injection, schedule: Q01DX001 (ip), vehicle: saline with Tween-80
[20] = dose: 100.0 mg/kg/injection, schedule: Q01DX009 (ip), vehicle: saline with Tween-80
[21] = dose: 200.0 mg/kg/injection, schedule: Q01DX001 (ip), vehicle: saline with Tween-80
[22] = dose: 200.0 mg/kg/injection, schedule: Q01DX009 (ip), vehicle: saline with Tween-80

Measured: T/C

CN(C)C1(C)CCC2C3CCC4=CC(=O)CCC4(C)C3CCC21C (configuration not stated)
inactive: dose: 50.0 mg/kg/injection, schedule: Q01DX001 (sc), vehicle: steriod suspending solution 98 % of control | dose: 100.0 mg/kg/injection, schedule: Q01DX001 (sc), vehicle: steriod suspending solution 98 % of control | dose: 200.0 mg/kg/injection, schedule: Q01DX001 (sc), vehicle: steriod suspending solution 95 % of control | dose: 400.0 mg/kg/injection, schedule: Q01DX001 (sc), vehicle: steriod suspending solution 98 % of control

O=C1NC(=O)/C(=C/c2ccccc2)N1
inactive: dose: 100.0 mg/kg/injection, schedule: Q01DX009 (ip), vehicle: Klucel (hydroxypropylcellulose) (HPC) 96 % of control | [1] 104 % of control | dose: 200.0 mg/kg/injection, schedule: Q01DX009 (ip), vehicle: Klucel (hydroxypropylcellulose) (HPC) 98 % of control | dose: 200.0 mg/kg/injection, schedule: Q04DX003 (ip), vehicle: Klucel (hydroxypropylcellulose) (HPC) 96 % of control | dose: 400.0 mg/kg/injection, schedule: Q01DX009 (ip), vehicle: Klucel (hydroxypropylcellulose) (HPC) 102 % of control | dose: 400.0 mg/kg/injection, schedule: Q04DX003 (ip), vehicle: Klucel (hydroxypropylcellulose) (HPC) 96 % of control

Cn1c2ccc3c(c2c(=O)c2ccoc21)C=CC(C)(C)O3
inactive: [2] 98 % of control | [3] 98 % of control | [4] 91 % of control | [5] 98 % of control

CN(C)C(=O)CCC(=O)O
inactive: [6] 103 % of control | [7] 97 % of control | [8] 97 % of control

NCc1ccc(Cl)cc1Cl
inactive: dose: 100.0 mg/kg/injection, schedule: Q01DX009 (ip), vehicle: saline 103 % of control | dose: 200.0 mg/kg/injection, schedule: Q01DX009 (ip), vehicle: saline 108 % of control

O=C1c2cccc3cc([N+](=O)[O-])cc(c23)C(=O)N1O
inactive: [9] 101 % of control | [10] 97 % of control | [11] 107 % of control

CC[n+]1c(C)ccc2ccccc21
inactive: dose: 25.0 mg/kg/injection, schedule: Q01DX009 (ip), vehicle: Klucel (hydroxypropylcellulose) (HPC) 91 % of control | dose: 25.0 mg/kg/injection, schedule: Q04DX003 (ip), vehicle: Klucel (hydroxypropylcellulose) (HPC) 99 % of control | [12] 95 % of control | dose: 50.0 mg/kg/injection, schedule: Q01DX009 (ip), vehicle: Klucel (hydroxypropylcellulose) (HPC) 91 % of control | dose: 50.0 mg/kg/injection, schedule: Q04DX003 (ip), vehicle: Klucel (hydroxypropylcellulose) (HPC) 99 % of control

C[n+]1ccsn1
inactive: [3] 95 % of control | [4] 93 % of control | [5] 95 % of control

COc1ccc(CCNC2CC3CCC2(C)C3(C)C)cc1OC (configuration not stated)
inactive: [9] 100 % of control and 107 % of control | [10] 96 % of control | [11] 96 % of control

N#Cc1cccc(CS(=O)(=O)c2ccccc2)c1
inactive: [13] 104 % of control | [14] 96 % of control | [15] 89 % of control

COc1cc2nccc3c4ccccc4n(c1=O)c23
inactive: [12] 97 % of control | [9] 101 % of control | [10] 101 % of control | [11] 97 % of control

Cc1cc(/C=C\[N+](=O)[O-])c(C)c2c1oc1ccccc12
inactive: [9] 88 % of control | [10] 96 % of control | [11] 88 % of control

O=C(Nc1ccccc1)Nc1ncn[nH]1
inactive: dose: 75.0 mg/kg/injection, schedule: Q01DX001 (ip), vehicle: carboxymethylcellulose (CMC) 97 % of control | dose: 150.0 mg/kg/injection, schedule: Q01DX001 (ip), vehicle: carboxymethylcellulose (CMC) 92 % of control | dose: 300.0 mg/kg/injection, schedule: Q01DX001 (ip), vehicle: carboxymethylcellulose (CMC) 90 % of control

CC1CC(C)(C)C/C1=N/Nc1ccc([N+](=O)[O-])cc1[N+](=O)[O-] (configuration not stated)
inactive: [16] 97 % of control | [17] 94 % of control | [18] 87 % of control

Cc1ccc2c3c1C(O)C(C(N)=O)C3CCS2 (configuration not stated)
inactive: [10] 89 % of control | [11] 106 % of control

ClCCCCCCCCc1ccccc1
inactive: dose: 100.0 mg/kg/injection, schedule: Q01DX009 (ip), vehicle: saline sonified 105 % of control | dose: 100.0 mg/kg/injection, schedule: Q04DX003 (ip), vehicle: saline sonified 100 % of control | dose: 200.0 mg/kg/injection, schedule: Q01DX009 (ip), vehicle: saline sonified 102 % of control | dose: 200.0 mg/kg/injection, schedule: Q04DX003 (ip), vehicle: saline sonified 102 % of control | dose: 400.0 mg/kg/injection, schedule: Q01DX009 (ip), vehicle: saline sonified 107 % of control | dose: 400.0 mg/kg/injection, schedule: Q04DX003 (ip), vehicle: saline sonified 96 % of control

CNC(=S)Nc1ncn[nH]1
inactive: dose: 100.0 mg/kg/injection, schedule: Q04DX003 (ip), vehicle: saline 94 % of control | dose: 200.0 mg/kg/injection, schedule: Q04DX003 (ip), vehicle: saline 100 % of control | dose: 400.0 mg/kg/injection, schedule: Q04DX003 (ip), vehicle: saline 86 % of control

CCCN(C(=O)c1cccc([N+](=O)[O-])c1)C(c1ccco1)P(=O)(c1ccccc1)c1ccccc1 (configuration not stated)
inactive: dose: 50.0 mg/kg/injection, schedule: Q01DX001 (ip), vehicle: saline with Tween-80 101 % of control | [19] 101 % of control | [20] 100 % of control and 90 % of control | [16] 98 % of control | [21] 106 % of control | [22] 87 % of control | [17] 102 % of control | [18] 93 % of control and 88 % of control

OC(c1ccccc1)(c1ccccc1)c1nc2ccccc2[nH]1
inactive: dose: 75.0 mg/kg/injection, schedule: Q01DX009 (ip), vehicle: Klucel (hydroxypropylcellulose) (HPC) 97 % of control | dose: 150.0 mg/kg/injection, schedule: Q01DX009 (ip), vehicle: Klucel (hydroxypropylcellulose) (HPC) 87 % of control | dose: 300.0 mg/kg/injection, schedule: Q01DX009 (ip), vehicle: Klucel (hydroxypropylcellulose) (HPC) 104 % of control

CC12CC3CC1C2C3OC=O (configuration not stated)
inactive: [2] 90 % of control | [3] 95 % of control | [4] 95 % of control | [5] 101 % of control

O=C(O)C(Cl)C(Cl)c1ccccc1 (configuration not stated)
inactive: dose: 75.0 mg/kg/injection, schedule: Q01DX001 (ip), vehicle: saline 98 % of control | dose: 150.0 mg/kg/injection, schedule: Q01DX001 (ip), vehicle: saline 98 % of control | dose: 300.0 mg/kg/injection, schedule: Q01DX001 (ip), vehicle: saline 101 % of control

NC(=O)/C=C/C(=O)O
inactive: [19] 97 % of control | [20] 98 % of control and 101 % of control | [13] 88 % of control | [16] 94 % of control and 97 % of control | dose: 100.0 mg/kg/injection, schedule: Q04DX003 (ip), vehicle: saline with Tween-80 92 % of control | [21] 108 % of control | [22] 98 % of control and 116 % of control | [14] 88 % of control | [17] 97 % of control and 99 % of control | dose: 200.0 mg/kg/injection, schedule: Q04DX003 (ip), vehicle: saline with Tween-80 106 % of control | dose: 400.0 mg/kg/injection, schedule: Q01DX001 (ip), vehicle: saline with Tween-80 96 % of control | [15] 91 % of control | [18] 90 % of control | dose: 400.0 mg/kg/injection, schedule: Q04DX003 (ip), vehicle: saline with Tween-80 94 % of control

Cc1ccc(-c2nc3ncncc3[nH]2)cc1[N+](=O)[O-]
inactive: dose: 32.5 mg/kg/injection, schedule: Q01DX001 (ip), vehicle: Klucel (hydroxypropylcellulose) (HPC) 100 % of control | dose: 65.0 mg/kg/injection, schedule: Q01DX001 (ip), vehicle: Klucel (hydroxypropylcellulose) (HPC) 102 % of control | dose: 130.0 mg/kg/injection, schedule: Q01DX001 (ip), vehicle: Klucel (hydroxypropylcellulose) (HPC) 97 % of control

O=c1[nH]c2ccccc2nc1C(Cl)Cl
inactive: [1] 115 % of control

COc1ccc(NC(=O)/C=C/C(=O)O)cc1
inactive: [13] 103 % of control | [14] 95 % of control | [15] 120 % of control

O=C1C2C3CCC(O3)C2C(=O)N1CCO (configuration not stated)
inactive: [6] 109 % of control | [7] 106 % of control | [8] 98 % of control
